Assay results from patent US20230250096A1, “SUBSTITUTED PHENYL-1H-PYRROLO[2,3-c] PYRIDINE DERIVATIVES” (Janssen Pharmaceutica NV, priority 2021, published 2023).

Legend:
MEIS1 mRNA expression = MEIS1 mRNA expression assay (Quantigene Singleplex) in MOLM14 cells; type: cell-based, human; details: 48 hours incubation
Summary of the method: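 Read-out: MEIS1 transcript counts, background-subtracted and divided by RPL28, expressed as fold change over DMSO-treated cells, then dose-response modelled for IC50. MOLM14 cells (3,750/well) received graded compound for 48 h before lysis and QuantiGene hybridization at 55 °C.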

[1] = target: T1, menin/MLL (terbium chelate-labeled menin, FITC-MBM1 peptide) (Homo sapiens, UniProt O00255, T541A); test: Menin/MLL homogenous time-resolved fluorescence (HTRF) assay; type: binding; details: 30 min incubation
T1 construct: Menin (a.a 1-610-6xhis tag, 2.3 mg/mL in 20 mM Hepes)
T1 sequence (O00255 with tags, fused parts or gaps T541A): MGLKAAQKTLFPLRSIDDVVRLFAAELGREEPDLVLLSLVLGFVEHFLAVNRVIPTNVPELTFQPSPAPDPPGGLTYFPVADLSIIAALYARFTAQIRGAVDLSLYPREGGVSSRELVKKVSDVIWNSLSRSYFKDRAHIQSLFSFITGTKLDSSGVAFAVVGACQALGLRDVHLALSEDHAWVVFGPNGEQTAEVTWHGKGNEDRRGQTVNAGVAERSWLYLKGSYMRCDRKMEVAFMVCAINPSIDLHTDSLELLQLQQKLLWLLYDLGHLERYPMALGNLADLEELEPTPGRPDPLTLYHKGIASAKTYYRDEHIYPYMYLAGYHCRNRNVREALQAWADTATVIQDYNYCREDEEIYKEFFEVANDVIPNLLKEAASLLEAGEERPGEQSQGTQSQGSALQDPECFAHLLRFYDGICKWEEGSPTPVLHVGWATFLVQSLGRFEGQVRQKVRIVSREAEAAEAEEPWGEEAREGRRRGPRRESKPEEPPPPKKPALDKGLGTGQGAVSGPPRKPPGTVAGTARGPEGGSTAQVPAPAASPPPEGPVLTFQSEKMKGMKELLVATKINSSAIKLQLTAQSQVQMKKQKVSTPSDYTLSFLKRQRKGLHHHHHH
Summary of the method: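 Competition binding read by time-resolved FRET (FITC 520 nm over terbium 490 nm) after compound meets labeled menin 1-610-His […] for 30 min, then FITC-MBM1 (75 nM) for 15 min, ambient temperature, 0.5% DMSO. Eleven-point four-fold dilutions, usually starting at 10 μM, fitted to four-parameter curves for IC50.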

SMILES	IC50 (MEIS1 mRNA expression; Homo sapiens, MOLM-14, 48 h) [nM]	IC50 [1] [nM]	IC50 (MEIS1 mRNA expression) [nM]
CC(=O)N1CCC([C@@H](C)N2CC[C@H](Cc3cn(-c4ccc(F)cc4[S@@](=N)(=O)C(C)C)c4cncc(C)c34)C2)CC1 (single isomer, unassigned) [Compound 233a]	247	0.171	–
CC(=O)N1CCC([C@H](C)N2CC[C@H](Cc3cn(-c4ccc(F)cc4[S@@](=N)(=O)C(C)C)c4cncc(C)c34)C2)CC1 (single isomer, unassigned) [Compound 233b]	> 1000	2.24	–
Cc1cncc2c1c(C[C@@H]1CCN([C@@H](CN(C)C)C3CCOCC3)C1)cn2-c1ccc(F)cc1C(=O)N(C)C(C)C (single isomer, unassigned) [Compound 240a]	291	0.407	–
Cc1cncc2c1c(C[C@@H]1CCN([C@H](CN(C)C)C3CCOCC3)C1)cn2-c1ccc(F)cc1C(=O)N(C)C(C)C (single isomer, unassigned) [Compound 240b]	38	0.151	–
CCC(C1CCN(C(C)=O)CC1)N1CC[C@@H](Cc2cn(-c3ccc(F)cc3C(=O)N(C)C(C)C)c3cncc(C)c23)C1 (single isomer, unassigned) [Compound 247]	–	0.179	116
COCC[C@H](C1CCOCC1)N1CC[C@@H](Cc2cn(-c3ccc(F)cc3C(=O)N(C)C(C)C)c3cncc(C)c23)C1 (single isomer, unassigned) [Compound 252a]	69	0.341	–
COCC[C@@H](C1CCOCC1)N1CC[C@@H](Cc2cn(-c3ccc(F)cc3C(=O)N(C)C(C)C)c3cncc(C)c23)C1 (single isomer, unassigned) [Compound 252b]	315	0.25	–
Cc1cncc2c1c(C[C@@H]1CCN([C@H](CCO)C3CCOCC3)C1)cn2-c1ccc(F)cc1C(=O)N(C)C(C)C (single isomer, unassigned) [Compound 253a]	~540	1.47	–
Cc1cncc2c1c(C[C@@H]1CCN([C@@H](CCO)C3CCOCC3)C1)cn2-c1ccc(F)cc1C(=O)N(C)C(C)C (single isomer, unassigned) [Compound 253b]	> 1000	1.73	–
CC(=O)N1CCC(N2CC(Cc3cn(-c4ccc(F)cc4C(=O)N(C)C(C)C)c4cncc(C)c34)C2)C[C@H]1C (single isomer, unassigned) [Compound 292b]	~586	0.562	–
CC(=O)N1CCC(N2CC(Cc3cn(-c4ccc(F)cc4C(=O)N(C)C(C)C)c4cncc(C)c34)C2)C[C@@H]1C (single isomer, unassigned) [Compound 293a]	148	0.459	–
CC(=O)N1CCC(N2CC(Cc3cn(-c4ccc(F)cc4C(=O)N(C)C(C)C)c4cncc(C)c34)C2)C[C@@H]1C (single isomer, unassigned) [Compound 293b]	–	0.152	259
Cc1cncc2c1c(CC1CN([C@H]3CCN4C(=O)CCC4C3)C1)cn2-c1ccc(F)cc1C(=O)N(C)C(C)C (single isomer, unassigned) [Compound 309b]	> 1000	0.111	–
CC(=O)N1CCC(CN2CC[C@@H](Cc3cn(-c4ccc(F)cc4C(=O)N(C[C@@H](C)O)C(C)C)c4cncc(C)c34)C2)CC1 (single isomer, unassigned) [Compound 320a]	24	0.189	–
Cc1cncc2c1c(C[C@@H]1CCN(C[C@@H]3CCNC(=O)CC3)C1)cn2-c1ccc(F)cc1C(=O)N1CCC2CC21 (single isomer, unassigned) [Compound 351b]	182	0.255	–
Cc1cncc2c1c(C[C@@H]1CCN(CC3CCOCC3)C1)cn2-c1ccc(F)cc1C(=O)N1CCC[C@]1(C)CO (single isomer, unassigned) [Compound 362a]	184	0.149	–
Cc1cncc2c1c(C[C@@H]1CCN(CC3CCOCC3)C1)cn2-c1ccc(F)cc1C(=O)N1CCCC1C(C)O (single isomer, unassigned) [Compound 363a]	–	0.228	359
Cc1cncc2c1c(C[C@@H]1CCN(CC3CCOCC3)C1)cn2-c1ccc(F)cc1C(=O)N1CC[C@H](O)C1(C)C (single isomer, unassigned) [Compound 364b]	~670	0.292	–
Cc1cncc2c1c(C[C@@H]1CCN([C@H](CCC3OCCO3)C(C)C)C1)cn2-c1ccc(F)cc1C(=O)N(C)C(C)C (single isomer, unassigned) [Compound 367]	> 1000	0.201	–
Cc1cncc2c1c(C=C1CCN(CC3CCOCC3)C1)cn2-c1ccc(F)cc1C(=O)N(C)C(C)C (single isomer, unassigned) [Compound 523a]	–	0.376	> 1000
Cc1cncc2c1c(C=C1CCN(CC3CCOCC3)C1)cn2-c1ccc(F)cc1C(=O)N(C)C(C)C (single isomer, unassigned) [Compound 523b]	–	0.124	62
Cc1cncc2c1c(C=C1CCN(C)C1)cn2-c1ccc(F)cc1C(=O)N(C)C(C)C (single isomer, unassigned) [Compound 524a]	–	19	2560
Cc1cncc2c1c(C=C1CCN(C)C1)cn2-c1ccc(F)cc1C(=O)N(C)C(C)C (single isomer, unassigned) [Compound 524b]	2120	8.62	–
Cc1cncc2c1c(C[C@@H]1CCN(CC3CCOCC3)C1)cn2-c1ccc(F)cc1C(=O)N1CCC(O)C1C (stereo in doubt) [Compound 358]	386	0.223	–
COCCN(C)CCCC(C(C)C)N1CCC(Cc2cn(-c3ccc(F)cc3C(=O)N(C)C(C)C)c3cncc(C(F)(F)F)c23)C1 (stereo not shown) [Compound 7]	158	0.305	–
CCN(C(=O)c1cc(F)ccc1-n1cc(CC2CN(C(C(C)C)[C@H]3C[C@H](N4CCN(S(C)(=O)=O)CC4)C3)C2)c2c(C)cncc21)C(C)C (stereo partly shown) [Compound 37b]	28	0.237	–

Compounds with a lower IC50 [1], results first:

IC50 (MEIS1 mRNA expression; Homo sapiens, MOLM-14, 48 h) [nM]	IC50 [1] [nM]	IC50 (MEIS1 mRNA expression) [nM]	SMILES
–	0.057	16	CCC(C1CCN(C(C)=O)CC1)N1CC[C@@H](Cc2cn(-c3ccc(F)cc3C(=O)N(C)C(C)C)c3cncc(C)c23)C1 (single isomer, unassigned) [Compound 246]
62	0.104	–	CC(=O)N1CCC(CN2CC[C@@H](Cc3cn(-c4ccc(F)cc4C(=O)N(C[C@H](C)O)C(C)C)c4cncc(C)c34)C2)CC1 (single isomer, unassigned) [Compound 320b]
12	0.04	–	Cc1cncc2c1c(C[C@@H]1CCN(C[C@H]3CCNC(=O)CC3)C1)cn2-c1ccc(F)cc1C(=O)N1CCC2CC21 (single isomer, unassigned) [Compound 351a]
–	0.093	~174	Cc1cncc2c1c(C[C@@H]1CCN(CC3CCOCC3)C1)cn2-c1ccc(F)cc1C(=O)N1CCCC1C(C)O (single isomer, unassigned) [Compound 363b]
225	0.098	–	Cc1cncc2c1c(C[C@@H]1CCN(CC3CCOCC3)C1)cn2-c1ccc(F)cc1C(=O)N1CC[C@@H](O)C1(C)C (single isomer, unassigned) [Compound 364a]
35	0.102	–	Cc1cncc2c1c(C[C@@H]1CCN(CC3CCOCC3)C1)cn2-c1ccc(F)cc1C(=O)N(C[C@@H](C)O)C(C)C (single isomer, unassigned) [Compound 365a]
~319	0.067	–	Cc1cncc2c1c(CC1CCN(C(CCC3OCCO3)C(C)C)C1)cn2-c1ccc(F)cc1C(=O)N(C)C(C)C (single isomer, unassigned) [Compound 366]
7	0.036	–	CCC([C@H]1C[C@@H](N2C[C@H]3CN(C(C)=O)C[C@@H]3C2)C1)N1CC[C@@H](Cc2cn(-c3ccc(F)cc3C(=O)N(C)C(C)C)c3cncc(Cl)c23)C1 (stereo partly shown) [Compound 26a]
–	~0.036	29	CCC([C@H]1C[C@@H](N2C[C@H]3CN(C(C)=O)C[C@@H]3C2)C1)N1CC[C@@H](Cc2cn(-c3ccc(F)cc3C(=O)N(C)C(C)C)c3cncc(Cl)c23)C1 (stereo partly shown) [Compound 26b]
23	0.03	–	Cc1cncc2c1c(CC1CN([C@@H](C(C)C)[C@H]3C[C@H](N4CCC(S(C)(=O)=O)CC4)C3)C1)cn2-c1ccc(F)cc1C(=O)N(C)C(C)C [Compound 33b]
47	0.077	–	CCN(C(=O)c1cc(F)ccc1-n1cc(CC2CN(C(C(C)C)[C@H]3C[C@H](N4CCN(C(C)=O)CC4)C3)C2)c2c(C)cncc21)C(C)C (stereo partly shown) [Compound 35b]
14	0.085	–	Cc1cncc2c1c(CC1CN(CC3CCN(C(=O)OC(C)(C)C)CC3)C1)cn2-c1ccc(F)cc1C(=O)N(C)C(C)C [Compound 62]
